Test results as given in ChEMBL document CHEMBL1275583, “First report of KPC-2-producing Klebsiella pneumoniae strains in Brazil” (2009).
In brackets after ≈: the same amount, converted by molar mass.

How the values were obtained:
[1] = tested on: Klebsiella pneumoniae; assay: Antibacterial activity against Klebsiella pneumoniae urine isolate A28009 PFGE pattern A expressing KPC-2, TEM-1, SHV-11, CTX-M-2 beta-lactamase by agar dilution method; assay type: functional
[2] = tested on: Klebsiella pneumoniae; assay: Antibacterial activity against Klebsiella pneumoniae blood isolate A28008 PFGE pattern A expressing KPC-2, TEM-1, SHV-11, CTX-M-2 beta-lactamase by agar dilution method; assay type: functional
[3] = tested on: Klebsiella pneumoniae; assay: Antibacterial activity against Klebsiella pneumoniae blood isolate A28006 PFGE pattern A expressing KPC-2, TEM-1, SHV-11, CTX-M-2 beta-lactamase by agar dilution method; assay type: functional
[4] = tested on: Escherichia coli; assay: Antibacterial activity against Escherichia coli DH10B by agar dilution method; assay type: functional; details: K-12 DH10B
[5] = tested on: Klebsiella pneumoniae; assay: Antibacterial activity against Klebsiella pneumoniae urine isolate A28011 PFGE pattern A expressing KPC-2 CTX-M-2 beta-lactamase by agar dilution method; assay type: functional
[6] = tested on: Escherichia coli; assay: microbe, parasite or virus in culture; details: K-12 DH10B
Description: (§1) Antibacterial activity against Escherichia coli DH10B expressing KPC-2 CTX-M-2 by agar dilution method

[7] = tested on: Klebsiella pneumoniae; assay: Antibacterial activity against Klebsiella pneumoniae urine isolate A28009 PFGE pattern A expressing KPC-2, TEM-1, SHV-11, CTX-M-2 beta-lactamase by agar dilution method in presence of Tazobactam; assay type: functional
[8] = tested on: Klebsiella pneumoniae; assay: Antibacterial activity against Klebsiella pneumoniae blood isolate A28008 PFGE pattern A expressing KPC-2, TEM-1, SHV-11, CTX-M-2 beta-lactamase by agar dilution method in presence of Tazobactam; assay type: functional
[9] = tested on: Klebsiella pneumoniae; assay: Antibacterial activity against Klebsiella pneumoniae blood isolate A28006 PFGE pattern A expressing KPC-2, TEM-1, SHV-11, CTX-M-2 beta-lactamase by agar dilution method in presence of Tazobactam; assay type: functional
[10] = tested on: Klebsiella pneumoniae; assay: Antibacterial activity against Klebsiella pneumoniae urine isolate A28011 PFGE pattern A expressing KPC-2, CTX-M-2 beta-lactamase by agar dilution method in presence of Tazobactam; assay type: functional
[11] = tested on: Escherichia coli; details: K-12 DH10B
Description: as §1

[12] = tested on: Klebsiella pneumoniae; assay: Antibacterial activity against Klebsiella pneumoniae urine isolate A28009 PFGE pattern A expressing KPC-2, TEM-1, SHV-11, CTX-M-2 beta-lactamase by Etest method; assay type: functional
[13] = tested on: Klebsiella pneumoniae; assay: Antibacterial activity against Klebsiella pneumoniae blood isolate A28008 PFGE pattern A expressing KPC-2, TEM-1, SHV-11, CTX-M-2 beta-lactamase by Etest method; assay type: functional
[14] = tested on: Klebsiella pneumoniae; assay: Antibacterial activity against Klebsiella pneumoniae blood isolate A28006 PFGE pattern A expressing KPC-2, TEM-1, SHV-11, CTX-M-2 beta-lactamase by Etest method; assay type: functional
[15] = tested on: Escherichia coli; assay: Antibacterial activity against Escherichia coli DH10B expressing KPC-2 CTX-M-2 by Etest method; assay type: functional; details: K-12 DH10B
[16] = tested on: Escherichia coli; assay: Antibacterial activity against Escherichia coli DH10B by Etest method; assay type: functional; details: K-12 DH10B
[17] = tested on: Klebsiella pneumoniae; assay: Antibacterial activity against Klebsiella pneumoniae urine isolate A28011 PFGE pattern A expressing KPC-2, CTX-M-2 beta-lactamase by Etest method; assay type: functional

Compound	MIC [1]	MIC [2]	MIC [3]	MIC [4]	MIC [5]	MIC [6]	further results
CO/N=C(\C(=O)N[C@@H]1C(=O)N2C(C(=O)O)=C(CSc3nc(=O)c(O)nn3C)CS[C@H]12)c1csc(N)n1 [CEFTRIAXONE]	> 256 µg/mL	> 256 µg/mL	> 256 µg/mL	0.06 µg/mL (≈ 0.108 µM)	> 256 µg/mL	> 256 µg/mL	
CCN1CCN(C(=O)N[C@@H](C(=O)N[C@@H]2C(=O)N3[C@@H]2SC(C)(C)[C@@H]3C(=O)O)c2ccccc2)C(=O)C1=O [PIPERACILLIN]							MIC [7]: 16 µg/mL; MIC [8]: 16 µg/mL; MIC [9]: 16 µg/mL; MIC [10]: 8 µg/mL
C[C@H]1[C@H](NC(=O)/C(=N\OC(C)(C)C(=O)O)c2csc(N)n2)C(=O)N1S(=O)(=O)O [AZTREONAM]	> 256 µg/mL	64 µg/mL (≈ 147 µM)			> 256 µg/mL	32 µg/mL (≈ 73.5 µM)	
CO[C@@]1(NC(=O)Cc2cccs2)C(=O)N2C(C(=O)O)=C(COC(N)=O)CS[C@@H]21 [CEFOXITIN]	64 µg/mL (≈ 150 µM)	16 µg/mL (≈ 37.4 µM)	32 µg/mL (≈ 74.9 µM)	4 µg/mL (≈ 9.36 µM)	> 256 µg/mL	8 µg/mL (≈ 18.7 µM)	
C[C@@H](O)[C@H]1C(=O)N2C(C(=O)O)=C(S[C@@H]3CN[C@H](C(=O)N(C)C)C3)[C@H](C)[C@H]12 [MEROPENEM]	> 32 µg/mL	4 µg/mL (≈ 10.4 µM)	32 µg/mL (≈ 83.4 µM)	0.25 µg/mL (≈ 0.652 µM)	> 32 µg/mL	0.5 µg/mL (≈ 1.3 µM)	
CC(C)(O/N=C(\C(=O)N[C@@H]1C(=O)N2C(C(=O)[O-])=C(C[n+]3ccccc3)CS[C@H]12)c1csc(N)n1)C(=O)O [CEFTAZIDIME]	32 µg/mL (≈ 58.5 µM)	16 µg/mL (≈ 29.3 µM)	16 µg/mL (≈ 29.3 µM)	0.25 µg/mL (≈ 0.457 µM)	64 µg/mL (≈ 117 µM)	4 µg/mL (≈ 7.32 µM)	
CO/N=C(\C(=O)N[C@@H]1C(=O)N2C(C(=O)[O-])=C(C[N+]3(C)CCCC3)CS[C@H]12)c1csc(N)n1	64 µg/mL (≈ 133 µM)	32 µg/mL (≈ 66.6 µM)	128 µg/mL (≈ 266 µM)	0.25 µg/mL (≈ 0.52 µM)	> 256 µg/mL	2 µg/mL (≈ 4.16 µM)	
POLYMYXIN B	2 µg/mL	2 µg/mL	2 µg/mL	0.38 µg/mL	2 µg/mL		MIC [11]: 0.38 µg/mL
CN(C)c1cc(NC(=O)CNC(C)(C)C)c(O)c2c1C[C@H]1C[C@H]3[C@H](N(C)C)C(O)=C(C(N)=O)C(=O)[C@@]3(O)C(O)=C1C2=O [TIGECYCLINE]							MIC [12]: 0.38 µg/mL (≈ 0.649 µM); MIC [13]: 0.38 µg/mL (≈ 0.649 µM); MIC [14]: 0.38 µg/mL (≈ 0.649 µM); MIC [15]: 0.06 µg/mL (≈ 0.102 µM); MIC [16]: 0.06 µg/mL (≈ 0.102 µM); MIC [17]: 0.5 µg/mL (≈ 0.854 µM)
C[C@@H](O)[C@H]1C(=O)N2C(C(=O)O)=C(SCCNC=N)C[C@H]12 [IMIPENEM ANHYDROUS]	32 µg/mL (≈ 107 µM)	32 µg/mL (≈ 107 µM)	4 µg/mL (≈ 13.4 µM)		16 µg/mL (≈ 53.4 µM)	2 µg/mL (≈ 6.68 µM)	
GENTAMICIN	1 µg/mL	1 µg/mL	1 µg/mL	0.12 µg/mL	1 µg/mL		MIC [11]: 0.12 µg/mL
CO/N=C(\C(=O)N[C@@H]1C(=O)N2C(C(=O)O)=C(COC(C)=O)CS[C@H]12)c1csc(N)n1 [CEFOTAXIME]	> 256 µg/mL	> 256 µg/mL	> 256 µg/mL	< 0.25 µg/mL	> 256 µg/mL	4 µg/mL (≈ 8.78 µM)	
